# Assay results: PubChem BioAssay (NCI)
#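 Abbreviation: GI50, concentration required for 50% inhibition of growth. TGI denotes the concentration required for complete inhibition of growth.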
# How the values were obtained:
# Test in all cases: NCI anticancer screen, dose series, 384-well format
# 786-0 renal = test system: 786-0 renal
# A498 renal = test system: A498 renal
# A549 NSCLC = test system: A549 NSCLC
# ACHN renal = test system: ACHN renal
# CAKI-1 renal = test system: CAKI-1 renal
# CCRF-CEM leukemia = test system: CCRF-CEM leukemia
# COLO 205 colon = test system: COLO 205 colon
# DU-145 prostate = test system: DU-145 prostate
# EKVX NSCLC = test system: EKVX NSCLC
# HCC-2998 colon = test system: HCC-2998 colon
# HCT-116 colon = test system: HCT-116 colon
# HCT-15 colon = test system: HCT-15 colon
# HL-60(TB) leukemia = test system: HL-60(TB) leukemia
# HOP-62 NSCLC = test system: HOP-62 NSCLC
# HOP-92 NSCLC = test system: HOP-92 NSCLC
# HS 578T breast = test system: HS 578T breast
# HT29 colon = test system: HT29 colon
# IGROV1 ovarian = test system: IGROV1 ovarian
# K-562 leukemia = test system: K-562 leukemia
# KM12 colon = test system: KM12 colon
# LOX IMVI melanoma = test system: LOX IMVI melanoma
# M14 melanoma = test system: M14 melanoma
# MALME-3M melanoma = test system: MALME-3M melanoma
# MCF7 breast = test system: MCF7 breast
# MDA-MB-231 breast = test system: MDA-MB-231 breast
# MDA-MB-435 melanoma = test system: MDA-MB-435 melanoma
# MDA-MB-468 breast = test system: MDA-MB-468 breast
# MOLT-4 leukemia = test system: MOLT-4 leukemia
# NCI-H226 lung = test system: NCI-H226 lung
# NCI-H23 lung = test system: NCI-H23 lung
# NCI-H322M lung = test system: NCI-H322M lung
# NCI-H460 NSCLC = test system: NCI-H460 NSCLC
# NCI-H522 lung = test system: NCI-H522 lung
# NCI/ADR-RES ovarian = test system: NCI/ADR-RES ovarian
# OVCAR-3 ovarian = test system: OVCAR-3 ovarian
# OVCAR-4 ovarian = test system: OVCAR-4 ovarian
# OVCAR-5 ovarian = test system: OVCAR-5 ovarian
# OVCAR-8 ovarian = test system: OVCAR-8 ovarian
# PC-3 prostate = test system: PC-3 prostate
# RPMI-8226 leukemia = test system: RPMI-8226 leukemia
# RXF 393 renal = test system: RXF 393 renal
# SF-268 CNS = test system: SF-268 CNS
# SF-295 CNS = test system: SF-295 CNS
# SF-539 CNS = test system: SF-539 CNS
# SK-MEL-2 melanoma = test system: SK-MEL-2 melanoma
# SK-MEL-28 melanoma = test system: SK-MEL-28 melanoma
# SK-MEL-5 melanoma = test system: SK-MEL-5 melanoma
# SK-OV-3 ovarian = test system: SK-OV-3 ovarian
# SN12C renal = test system: SN12C renal
# SNB-19 CNS = test system: SNB-19 CNS
# SNB-75 CNS = test system: SNB-75 CNS
# SR leukemia = test system: SR leukemia
# SW-620 colon = test system: SW-620 colon
# T-47D breast = test system: T-47D breast
# TK-10 renal = test system: TK-10 renal
# U251 glioblastoma = test system: U251 glioblastoma
# UACC-62 melanoma = test system: UACC-62 melanoma
# UO-31 renal = test system: UO-31 renal
structure (smiles),measurement,setting,value
Cc1ccc(C(=O)N(CCCN)[C@@H](c2nc3cc(Cl)ccc3c(=O)n2Cc2ccccc2)C(C)C)cc1,GI50,786-0 renal,< 10 nM
same,TGI,786-0 renal,1420 nM
same,GI50,A498 renal,< 10 nM
same,TGI,A498 renal,1810 nM
same,GI50,A549 NSCLC,< 10 nM
same,TGI,A549 NSCLC,1800 nM
same,GI50,ACHN renal,1140 nM
same,TGI,ACHN renal,2370 nM
same,GI50,CAKI-1 renal,< 10 nM
same,TGI,CAKI-1 renal,1920 nM
same,GI50,CCRF-CEM leukemia,< 10 nM
same,TGI,CCRF-CEM leukemia,< 10 nM
same,GI50,COLO 205 colon,< 10 nM
same,TGI,COLO 205 colon,< 10 nM
same,GI50,DU-145 prostate,< 10 nM
same,TGI,DU-145 prostate,< 10 nM
same,GI50,EKVX NSCLC,< 10 nM
same,TGI,EKVX NSCLC,1220 nM
same,GI50,HCC-2998 colon,< 10 nM
same,TGI,HCC-2998 colon,112 nM
same,GI50,HCT-116 colon,< 10 nM
same,TGI,HCT-116 colon,1200 nM
same,GI50,HCT-15 colon,< 10 nM
same,TGI,HCT-15 colon,1280 nM
same,GI50,HL-60(TB) leukemia,< 10 nM
same,TGI,HL-60(TB) leukemia,< 10 nM
same,GI50,HOP-62 NSCLC,< 10 nM
same,TGI,HOP-62 NSCLC,1950 nM
same,GI50,HOP-92 NSCLC,< 10 nM
same,TGI,HOP-92 NSCLC,1700 nM
same,GI50,HS 578T breast,< 10 nM
same,TGI,HS 578T breast,< 10 nM
same,GI50,HT29 colon,< 10 nM
same,TGI,HT29 colon,1000 nM
same,GI50,IGROV1 ovarian,1100 nM
same,TGI,IGROV1 ovarian,2320 nM
same,GI50,K-562 leukemia,< 10 nM
same,TGI,K-562 leukemia,< 10 nM
same,GI50,KM12 colon,< 10 nM
same,TGI,KM12 colon,927 nM
same,GI50,LOX IMVI melanoma,< 10 nM
same,TGI,LOX IMVI melanoma,1530 nM
same,GI50,M14 melanoma,< 10 nM
same,TGI,M14 melanoma,< 10 nM
same,GI50,MALME-3M melanoma,< 10 nM
same,TGI,MALME-3M melanoma,1890 nM
same,GI50,MCF7 breast,< 10 nM
same,TGI,MCF7 breast,1270 nM
same,GI50,MDA-MB-231 breast,< 10 nM
same,TGI,MDA-MB-231 breast,1780 nM
same,GI50,MDA-MB-435 melanoma,< 10 nM
same,TGI,MDA-MB-435 melanoma,< 10 nM
same,GI50,MDA-MB-468 breast,< 10 nM
same,TGI,MDA-MB-468 breast,< 10 nM
same,GI50,MOLT-4 leukemia,< 10 nM
same,TGI,MOLT-4 leukemia,< 10 nM
same,GI50,NCI-H226 lung,1120 nM
same,TGI,NCI-H226 lung,2340 nM
same,GI50,NCI-H23 lung,< 10 nM
same,TGI,NCI-H23 lung,1080 nM
same,GI50,NCI-H322M lung,< 10 nM
same,TGI,NCI-H322M lung,1730 nM
same,GI50,NCI-H460 NSCLC,< 10 nM
same,TGI,NCI-H460 NSCLC,< 10 nM
same,GI50,NCI-H522 lung,< 10 nM
same,TGI,NCI-H522 lung,< 10 nM
same,GI50,NCI/ADR-RES ovarian,109 nM
same,TGI,NCI/ADR-RES ovarian,263 nM
same,GI50,OVCAR-3 ovarian,< 10 nM
same,TGI,OVCAR-3 ovarian,< 10 nM
same,GI50,OVCAR-4 ovarian,< 10 nM
same,TGI,OVCAR-4 ovarian,1890 nM
same,GI50,OVCAR-5 ovarian,< 10 nM
same,TGI,OVCAR-5 ovarian,1250 nM
same,GI50,OVCAR-8 ovarian,< 10 nM
same,TGI,OVCAR-8 ovarian,1200 nM
same,GI50,PC-3 prostate,< 10 nM
same,TGI,PC-3 prostate,1620 nM
same,GI50,RPMI-8226 leukemia,< 10 nM
same,TGI,RPMI-8226 leukemia,< 10 nM
same,GI50,RXF 393 renal,< 10 nM
same,TGI,RXF 393 renal,< 10 nM
same,GI50,SF-268 CNS,< 10 nM
same,TGI,SF-268 CNS,1650 nM
same,GI50,SF-295 CNS,< 10 nM
same,TGI,SF-295 CNS,< 10 nM
same,GI50,SF-539 CNS,< 10 nM
same,TGI,SF-539 CNS,20.2 nM
same,GI50,SK-MEL-2 melanoma,< 10 nM
same,TGI,SK-MEL-2 melanoma,< 10 nM
same,GI50,SK-MEL-28 melanoma,1350 nM
same,TGI,SK-MEL-28 melanoma,2640 nM
same,GI50,SK-MEL-5 melanoma,< 10 nM
same,TGI,SK-MEL-5 melanoma,14.7 nM
same,GI50,SK-OV-3 ovarian,< 10 nM
same,TGI,SK-OV-3 ovarian,1540 nM
same,GI50,SN12C renal,< 10 nM
same,TGI,SN12C renal,1790 nM
same,GI50,SNB-19 CNS,< 10 nM
same,TGI,SNB-19 CNS,1740 nM
same,GI50,SNB-75 CNS,< 10 nM
same,TGI,SNB-75 CNS,1950 nM
same,GI50,SR leukemia,< 10 nM
same,TGI,SR leukemia,< 10 nM
same,GI50,SW-620 colon,< 10 nM
same,TGI,SW-620 colon,1060 nM
same,GI50,T-47D breast,< 10 nM
same,TGI,T-47D breast,1300 nM
same,GI50,TK-10 renal,94.9 nM
same,TGI,TK-10 renal,2070 nM
same,GI50,U251 glioblastoma,< 10 nM
same,TGI,U251 glioblastoma,1430 nM
same,GI50,UACC-62 melanoma,< 10 nM
same,TGI,UACC-62 melanoma,1400 nM
same,GI50,UO-31 renal,1080 nM
same,TGI,UO-31 renal,2290 nM
